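In this assay, cells in 96-well plates receive the compound at five concentrations for 48 hours. Endpoints are linearly interpolated between the surrounding concentrations. At the GI50, growth is halved.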 Calls of active or inactive are those of the source. Cut-off read from the data, not from the text of the source: active = GI50 up to about 1.1 µM and inactive = higher.
Tests used:
Assay in all cases: growth of human tumour cells (NCI), 48 h
[1] = system: SR
[2] = system: COLO 205
[3] = system: SK-OV-3
[4] = system: ACHN
[5] = system: SNB-19
[6] = system: KM12
[7] = system: PC-3
[8] = system: UACC-62
[9] = system: SF-539
[10] = system: BT-549
[11] = system: U-251
[12] = system: CCRF-CEM
[13] = system: NCI-H460
[14] = system: EKVX
[15] = system: T47D
[16] = system: MOLT-4
[17] = system: HOP-62
[18] = system: MDA-MB-435
[19] = system: MDA-MB-231
[20] = system: OVCAR-3

Measured: GI50

CCN(CC)C1C(=O)NC1C#Cc1ccccc1 (stereo not given)
inactive: [1] 32 µM | [2] > 100 µM | [3] > 100 µM | [4] > 100 µM | [5] > 100 µM | [6] > 100 µM | [7] > 100 µM | [8] > 100 µM | [9] > 100 µM | [10] 61.9 µM | [11] > 100 µM | [12] 32 µM | [13] > 100 µM | [14] > 100 µM | [15] 84.7 µM | [16] > 10 µM | [17] > 100 µM | [18] 40.8 µM | [19] > 100 µM | [20] > 100 µM

From ChEMBL document CHEMBL1201862, “PubChem BioAssay data set” (2004)
